Assay results: ChEMBL document CHEMBL5465560, “Selectivity Literature for EUbOPEN Chemogenomic Library” (2024)

Key:
[1] = target: Cyclin-dependent kinase 2 (Homo sapiens, UniProt P24941); assay: Selectivity interaction (Ambit KINOMEscan and KiNATiv profiling in Jurkat cells) EUB0000090b CDK2; format: cell-based; details: at 1 µM
[2] = target: T1, Phosphatidylinositol 4,5-bisphosphate 3-kinase catalytic subunit delta isoform (Homo sapiens) (UniProt O00329); assay: Selectivity interaction (KinomeScan (DiscoverX)) EUB0001079a PIK3CD; details: at 1 µM
T1 sequence (whole entry): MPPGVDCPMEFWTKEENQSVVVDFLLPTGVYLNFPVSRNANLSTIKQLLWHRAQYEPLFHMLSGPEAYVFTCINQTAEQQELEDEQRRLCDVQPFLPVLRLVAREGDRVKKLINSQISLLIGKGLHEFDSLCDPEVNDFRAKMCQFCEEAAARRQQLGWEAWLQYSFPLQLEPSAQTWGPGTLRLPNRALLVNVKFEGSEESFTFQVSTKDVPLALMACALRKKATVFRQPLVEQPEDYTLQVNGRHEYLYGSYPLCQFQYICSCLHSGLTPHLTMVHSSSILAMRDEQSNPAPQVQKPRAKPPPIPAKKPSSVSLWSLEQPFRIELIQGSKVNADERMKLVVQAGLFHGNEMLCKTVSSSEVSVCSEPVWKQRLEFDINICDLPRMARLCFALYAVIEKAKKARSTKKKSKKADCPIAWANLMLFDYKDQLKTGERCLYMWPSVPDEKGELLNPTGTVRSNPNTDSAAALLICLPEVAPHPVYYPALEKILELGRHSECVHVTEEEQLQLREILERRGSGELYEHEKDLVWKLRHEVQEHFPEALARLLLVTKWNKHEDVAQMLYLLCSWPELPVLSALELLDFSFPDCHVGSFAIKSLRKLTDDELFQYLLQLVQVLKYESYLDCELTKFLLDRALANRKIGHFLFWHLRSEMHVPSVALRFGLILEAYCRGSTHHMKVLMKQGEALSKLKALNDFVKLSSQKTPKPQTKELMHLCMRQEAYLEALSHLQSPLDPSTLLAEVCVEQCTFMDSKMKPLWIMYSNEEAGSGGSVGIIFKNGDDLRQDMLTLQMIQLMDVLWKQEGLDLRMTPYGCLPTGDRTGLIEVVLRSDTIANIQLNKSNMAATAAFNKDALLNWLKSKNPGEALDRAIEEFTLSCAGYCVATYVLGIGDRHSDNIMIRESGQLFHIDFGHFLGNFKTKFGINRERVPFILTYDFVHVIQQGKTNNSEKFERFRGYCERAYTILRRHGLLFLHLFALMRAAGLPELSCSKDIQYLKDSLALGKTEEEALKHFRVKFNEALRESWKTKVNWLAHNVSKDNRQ

[3] = target: Phosphatidylinositol 4-phosphate 5-kinase type-1 alpha (Homo sapiens) (UniProt Q99755); assay: Selectivity interaction (KinomeScan (DiscoverX)) EUB0000092b PIP5K1A; details: at 10 µM
Sequence of Phosphatidylinositol 4-phosphate 5-kinase type-1 alpha (Homo sapiens) (Q99755 whole entry): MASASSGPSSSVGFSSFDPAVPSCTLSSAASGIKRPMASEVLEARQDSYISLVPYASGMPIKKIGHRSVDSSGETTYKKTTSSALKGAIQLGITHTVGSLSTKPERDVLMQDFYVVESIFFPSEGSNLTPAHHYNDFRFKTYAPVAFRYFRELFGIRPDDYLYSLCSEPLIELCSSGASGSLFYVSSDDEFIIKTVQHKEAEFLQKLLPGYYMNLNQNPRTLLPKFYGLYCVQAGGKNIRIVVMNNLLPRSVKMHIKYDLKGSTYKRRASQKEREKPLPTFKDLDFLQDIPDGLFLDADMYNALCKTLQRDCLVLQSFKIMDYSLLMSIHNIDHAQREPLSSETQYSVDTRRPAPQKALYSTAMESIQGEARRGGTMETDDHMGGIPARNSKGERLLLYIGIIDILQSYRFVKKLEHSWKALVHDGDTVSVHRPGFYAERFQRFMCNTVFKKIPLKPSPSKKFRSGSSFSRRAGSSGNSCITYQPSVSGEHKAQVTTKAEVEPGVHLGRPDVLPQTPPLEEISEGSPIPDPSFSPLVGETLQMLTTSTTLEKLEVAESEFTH

[4] = target: T2, Serine/threonine-protein kinase ULK1 (Homo sapiens) (UniProt O75385); assay: Selectivity interaction (KinomeScan (DiscoverX)) EUB0000045b ULK1
T2 sequence (whole entry): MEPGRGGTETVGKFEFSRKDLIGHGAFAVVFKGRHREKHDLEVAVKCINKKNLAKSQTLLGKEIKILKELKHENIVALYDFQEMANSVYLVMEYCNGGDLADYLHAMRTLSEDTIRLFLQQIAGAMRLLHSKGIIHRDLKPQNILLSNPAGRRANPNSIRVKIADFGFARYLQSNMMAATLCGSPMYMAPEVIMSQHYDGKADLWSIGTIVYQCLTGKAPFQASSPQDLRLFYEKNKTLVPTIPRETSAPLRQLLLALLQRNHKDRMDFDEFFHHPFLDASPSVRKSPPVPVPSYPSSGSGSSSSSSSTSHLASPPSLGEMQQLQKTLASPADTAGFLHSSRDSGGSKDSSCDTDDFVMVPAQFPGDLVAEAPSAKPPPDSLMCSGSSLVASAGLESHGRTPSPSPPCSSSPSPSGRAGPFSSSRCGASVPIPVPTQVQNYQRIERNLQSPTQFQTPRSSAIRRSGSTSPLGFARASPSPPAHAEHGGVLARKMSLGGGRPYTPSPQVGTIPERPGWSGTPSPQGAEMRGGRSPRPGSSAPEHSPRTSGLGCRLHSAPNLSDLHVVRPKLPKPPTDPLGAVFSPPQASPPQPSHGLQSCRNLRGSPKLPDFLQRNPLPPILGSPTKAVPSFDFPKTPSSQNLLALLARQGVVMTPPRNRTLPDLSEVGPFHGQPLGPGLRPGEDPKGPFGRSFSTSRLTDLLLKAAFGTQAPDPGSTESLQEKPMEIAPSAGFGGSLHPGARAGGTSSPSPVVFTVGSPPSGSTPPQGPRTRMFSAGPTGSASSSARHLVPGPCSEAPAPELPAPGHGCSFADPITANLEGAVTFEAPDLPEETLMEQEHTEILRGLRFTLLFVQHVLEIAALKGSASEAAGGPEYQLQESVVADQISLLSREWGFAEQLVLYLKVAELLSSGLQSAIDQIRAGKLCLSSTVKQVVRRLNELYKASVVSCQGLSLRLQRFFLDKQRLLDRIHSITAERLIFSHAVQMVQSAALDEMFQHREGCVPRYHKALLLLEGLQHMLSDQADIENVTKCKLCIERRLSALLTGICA

[5] = target: T3, Serine/threonine-protein kinase Nek5 (Homo sapiens) (UniProt Q6P3R8); assay: Selectivity interaction (KinomeScan (DiscoverX)) EUB0000666a NEK5; details: at 10 µM
T3 sequence (whole entry): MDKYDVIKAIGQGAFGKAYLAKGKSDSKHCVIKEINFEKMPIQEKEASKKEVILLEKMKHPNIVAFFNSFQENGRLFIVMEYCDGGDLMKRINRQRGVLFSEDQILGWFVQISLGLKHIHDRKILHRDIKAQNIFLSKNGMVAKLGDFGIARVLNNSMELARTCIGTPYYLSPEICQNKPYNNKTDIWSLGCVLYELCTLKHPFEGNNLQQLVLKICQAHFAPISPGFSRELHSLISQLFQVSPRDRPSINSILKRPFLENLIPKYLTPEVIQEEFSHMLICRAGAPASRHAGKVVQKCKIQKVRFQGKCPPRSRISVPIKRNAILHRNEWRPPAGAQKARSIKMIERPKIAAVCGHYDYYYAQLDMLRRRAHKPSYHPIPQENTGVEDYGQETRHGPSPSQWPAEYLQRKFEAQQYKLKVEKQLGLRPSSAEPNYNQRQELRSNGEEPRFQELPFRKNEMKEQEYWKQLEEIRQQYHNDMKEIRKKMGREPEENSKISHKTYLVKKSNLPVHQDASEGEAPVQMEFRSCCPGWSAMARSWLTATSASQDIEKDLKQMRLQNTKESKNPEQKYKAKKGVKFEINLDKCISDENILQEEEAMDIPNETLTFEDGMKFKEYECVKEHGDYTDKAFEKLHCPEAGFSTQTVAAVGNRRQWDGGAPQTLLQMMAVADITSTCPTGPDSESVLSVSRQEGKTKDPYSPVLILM

Q: For `CN(C)C/C=C/C(=O)Nc1ccc(C(=O)N2CCCC(Nc3ncc(Cl)c(-c4c[nH]c5ccccc45)n3)C2)cc1` (stereo unspecified), which % of control [1] is on record?
A: The % of control was 72%.

Q: How did the % of control [2] turn out when `Nc1cnc(N2CCc3cc(S(=O)(=O)Nc4c(F)cc(Cl)cc4F)cc(N4CCCC4=O)c32)nc1` [TP-020n] was run?
A: Its % of control is 88%.

Q: For `CCC(=O)N1CCN(c2ccc(-n3c(=O)ccc4cnc5ccc(-c6cnc7ccccc7c6)cc5c43)cc2C(F)(F)F)CC1`, which % of control [3] is on record?
A: The % of control was 89%.

Q: For `C=CC(=O)Nc1cc(-n2c(=O)ccc3cnc4ccc(-c5ccc(NS(C)(=O)=O)cc5)cc4c32)ccc1C`, which % of control ([4]; at 1 µM) is on record?
A: Its % of control is 84%.

Q: And the % of control ([4]; at 10 µM)?
A: Its % of control is 100%.

Q: `O=C(NOC[C@H](O)CO)c1ccc(F)c(F)c1Nc1ccc(I)cc1F` was tested. Which % of control [5] did it give?
A: The % of control was 78%.
